What all share (assay): DTP human tumour cell line panel, 48 h
Test [1] has as its system OVCAR-3 ovarian.
The test system of test [2] is A498 renal.
Test [3] deals with K-562 leukemia.
For test [4], the system named is NCI-H460 lung.
The test system of test [5] is HCT-116 colon.
Test [6] has as its system HCT-15 colon.
For test [7], the system named is HT29 colon.
Test [8] relates to OVCAR-5 ovarian.
In test [9] the test system is RXF 393 renal.
Test [10] relates to RPMI-8226 leukemia.

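Tested at 5 concentrations; 48 h exposure; 96-well plates; endpoints linearly interpolated, else capped at highest concentration. GI50 is the concentration that inhibits growth by half. TGI: total growth inhibition.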

Turning to `Cc1cc(C)n(C2=NS(=O)(=O)c3ccccc3N2C)n1`, the TGI in test [1], in [2], in test [3], in test [4], in [5] and in test [6] was over 100 µM each time. Also, the TGI in test [7], in test [8] and in [9] was over 100 µM in each case.

`[2H]c1nc(=Nc2cc(NC(=O)C=C)c(N(C)CCN(C)C)cc2OC)[nH]c(-c2cn(C([2H])([2H])[2H])c3ccccc23)c1[2H]`: the GI50 in test [1] was 1.18 µM; in [2] it was 1.21 µM; in [3], 1.29 µM; in [4] it was 1.9 µM; in test [5], 1.48 µM; in test [6] it was 1.44 µM. For the same compound, the figures for the GI50 in test [7], in test [8] and in test [9] were 1.69 µM, 1.04 µM and 1.4 µM, respectively. Besides, the TGI in [1] was determined as 2.83 µM; in test [2] it was 4.56 µM; in test [3], 3.78 µM; in test [4] it was 4.37 µM; in test [5] it was 2.83 µM; in test [6], 3.05 µM. Also, the figures for the TGI in [7], in test [8] and in test [9] were 3.26 µM, 2.93 µM and 3.2 µM, respectively.

For `N#C/C(=C1\SC(N=Nc2ccc(Cl)cc2)C(=O)N1c1ccccc1)c1nc2ccccc2[nH]1` (stereo not given), the TGI is 69 µM in test [1]; 58.4 µM in test [2]; 41 µM in test [3]; over 100 µM in test [4]; over 100 µM in test [5]; over 100 µM in test [6]. Also, the TGI in [7] was over 100 µM; in test [8], over 100 µM; in test [9] it was 67.9 µM.

In the case of `CN(C)C(=S)Nc1nnc(Nc2ccccc2)s1`, the TGI in test [1], in [2], in test [3], in [4], in test [5] and in test [6] was over 100 µM throughout. The TGI in [7], in [8] and in [9] was over 100 µM in each case.

On to `c1ccc(-c2nc(N3CCCNCC3)c3nc(-c4ccccc4)oc3n2)cc1`, for which the GI50 in [1] was 1.75 µM; in [2], 1.07 µM; in test [4] it was 1.86 µM; in [5] it was 1.65 µM; in test [6], 1.47 µM; in [7], 1.76 µM. The GI50 is 1.7 µM in test [8] and 1.66 µM in [9]. The concentration for total growth inhibition (TGI) turned out to be 3.21 µM in [1]; 2.3 µM in [2]; 3.54 µM in test [4]; 3.35 µM in [5]; 2.89 µM in test [6]; 3.72 µM in test [7]. Also, the TGI in test [8] was 3.18 µM; in test [9], 3.29 µM.

Consider `O=S1CSSC1`, for which the TGI in test [1] was 58.9 µM; in test [2], over 100 µM; in test [3], 80.7 µM; in test [5], 31.7 µM; in test [7] it was 31.4 µM; in test [8], 36.7 µM. This compound displayed a TGI in test [9] of 35.2 µM.

For `CC(C)(C)OC(=O)NC1CCCC1=O` (stereo not given), the TGI in test [1], in [2], in test [3], in [4], in [5] and in [7] was over 100 µM throughout. Besides, the TGI in test [8] and in test [9] was over 100 µM each time.

In the case of `O=C1c2ccccc2-c2c1c1ccccc1c(=O)n2CCNCCn1c2c(c3ccccc3c1=O)C(=O)c1ccccc1-2`, the GI50 in test [1] was over 25 µM; in test [2] it was over 25 µM; in test [3] it was 5.42 µM; in test [4], over 25 µM; in test [5], over 25 µM; in test [6], over 25 µM. Besides, the GI50 in [8] and in test [9] was over 25 µM throughout. Besides, the TGI is over 25 µM in [1]; over 25 µM in [2]; 16.2 µM in test [3]; over 25 µM in test [4]; over 25 µM in test [5]; over 25 µM in test [6]. The TGI in [8] and in test [9] was over 25 µM in each case.

Regarding `COc1ccc(-c2cnoc2-c2cc(OC)c3c(c2)OCCO3)cc1`, the GI50 is under 0.0172 µM in test [1]; 0.0149 µM in test [2]; under 0.0115 µM in test [3]; 0.0327 µM in test [4]; 0.0396 µM in test [5]; 0.0477 µM in [10]. Besides, the GI50 in test [6] was 0.0258 µM; in [7] it was 0.0331 µM; in test [8], 0.0617 µM. The TGI in [1] was 1.55 µM; in test [2] it was 0.164 µM; in [3], over 100 µM; in test [4], 12.8 µM; in test [5], over 37 µM; in [10], 33 µM. Besides, the TGI was 28.1 µM in test [6], 20.8 µM in [7] and over 86.7 µM in test [8].

(Values after PubChem BioAssay (NCI).)
